Structures are written as SMILES. pIC50: −log10 of the molar value. Starred links: 1 amine or outer side, 2 acyl side, 3 side chain; linkers in the order of their positions; H or OH if unused. Non-standard residues stand in square brackets, D forms with d. Residues, ends and D or L forms follow the SMILES beside them. Ala(4-thiazolyl) = N[C@@H](Cc1cscn1)C(=O)O; Phe(4-Cl) = N[C@@H](Cc1ccc(Cl)cc1)C(=O)O; X1 = CCC(CC)C[C@@H](C(=O)[*:2])N(C)[*:1]; Phe(4-F) = N[C@@H](Cc1ccc(F)cc1)C(=O)O; NMeF = CN[C@@H](Cc1ccccc1)C(=O)O; NMeL = CN[C@@H](CC(C)C)C(=O)O; Ahp(2) = CCCCC[C@H](N)C(=O)O; Tle = CC(C)(C)[C@H](N)C(=O)O; hSer = N[C@@H](CCO)C(=O)O; NMeA = CN[C@@H](C)C(=O)O; dNMeA = CN[C@H](C)C(=O)O

The term pIC50 denotes the negative decadic logarithm of the IC50, by convention in mol/L. Read a high pIC50 as a low IC50. The term Papp A→B denotes the apparent permeability from the apical to the basolateral side of a cell layer.

One series deals with T1, Protein Mdm4 (Homo sapiens, UniProt O15151).
T1 sequence (O15151 whole entry): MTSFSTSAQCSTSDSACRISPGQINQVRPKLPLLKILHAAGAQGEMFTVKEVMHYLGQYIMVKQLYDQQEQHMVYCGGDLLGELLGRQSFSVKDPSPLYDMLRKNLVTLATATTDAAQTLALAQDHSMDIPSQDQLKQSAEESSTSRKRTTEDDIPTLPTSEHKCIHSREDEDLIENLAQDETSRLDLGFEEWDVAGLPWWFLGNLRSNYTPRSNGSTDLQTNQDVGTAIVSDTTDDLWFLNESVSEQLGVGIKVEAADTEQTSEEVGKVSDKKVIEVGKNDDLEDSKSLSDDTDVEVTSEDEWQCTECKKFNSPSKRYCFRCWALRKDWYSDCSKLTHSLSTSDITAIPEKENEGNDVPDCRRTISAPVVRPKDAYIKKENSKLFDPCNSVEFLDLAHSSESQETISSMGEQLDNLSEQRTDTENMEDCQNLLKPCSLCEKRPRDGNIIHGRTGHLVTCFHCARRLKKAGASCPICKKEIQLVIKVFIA
Description: Inhibition of N-terminal biotin-his-tagged MDMX (24 to 108 residues)(unknown origin) binding to p53 incubated for 1 hr by Alphascreen assay. On the technique in general: Alpha assays give light when donor and acceptor beads are brought close together.

A short description of series [1]: Apparent permeability across apical to basolateral side in MDCK-II cells at 10 uM incubated for 2 hrs by LC/MS/MS analysis. It is filed as ADME, cell-based, Canis lupus familiaris. Conditions: dog.

As for `CCCCC[C@@H]1NC(=O)[C@H](CC(C)C)N(C)C(=O)[C@H](Cc2ccc(F)cc2)NC(=O)[C@H](C)N(C)C(=O)[C@@H](C)N(C)C(=O)[C@H](Cc2cscn2)NC(=O)[C@H](C)N(C)C(=O)[C@H](CCOC)NC(=O)[C@H]2CCCN2C(=O)[C@H](CC(CC)CC)N(C)C1=O` (cyclo([Ahp(2)][X1][dP][hSer](Me)[NMeA][Ala(4-thiazolyl)][dNMeA][NMeA][Phe(4-F)][NMeL])), the pIC50 on Protein Mdm4 is 7.15. In addition, the Papp A→B at 2 h, 10 µM in series [1] stood at 0.8 ×10⁻⁶ cm/s.
For `COCC[C@@H]1NC(=O)[C@H]2CCCN2C(=O)[C@H](Cc2ccccc2)N(C)C(=O)[C@H](Cc2ccc(Cl)cc2)NC(=O)[C@H](C(C)(C)C)NC(=O)[C@H](Cc2ccc(F)cc2)NC(=O)[C@H](C)N(C)C(=O)[C@@H](C)N(C)C(=O)[C@H](Cc2cscn2)NC(=O)[C@H](C)N(C)C1=O` (cyclo([Ala(4-thiazolyl)][dNMeA][NMeA][Phe(4-F)][Tle][Phe(4-Cl)][NMeF][dP][hSer](Me)[NMeA])) the same measures were 7.52 and 0.07 ×10⁻⁶ cm/s.
